# Biological target: T1, Human FXIIa (Homo sapiens, UniProt P00748)
# T1 construct: active coagulation factor XII (FXIIa); purchased Enzyme Research Labs
# T1 sequence (P00748 373-615 limits assumed): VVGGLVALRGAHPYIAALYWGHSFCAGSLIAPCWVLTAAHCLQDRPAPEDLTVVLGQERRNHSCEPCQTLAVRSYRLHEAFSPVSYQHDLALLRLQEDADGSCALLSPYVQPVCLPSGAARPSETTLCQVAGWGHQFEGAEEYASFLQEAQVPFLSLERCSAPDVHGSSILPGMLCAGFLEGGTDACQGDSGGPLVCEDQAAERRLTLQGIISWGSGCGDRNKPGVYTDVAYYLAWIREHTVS
# T1 sequence (P00748 20-372 partner limits assumed): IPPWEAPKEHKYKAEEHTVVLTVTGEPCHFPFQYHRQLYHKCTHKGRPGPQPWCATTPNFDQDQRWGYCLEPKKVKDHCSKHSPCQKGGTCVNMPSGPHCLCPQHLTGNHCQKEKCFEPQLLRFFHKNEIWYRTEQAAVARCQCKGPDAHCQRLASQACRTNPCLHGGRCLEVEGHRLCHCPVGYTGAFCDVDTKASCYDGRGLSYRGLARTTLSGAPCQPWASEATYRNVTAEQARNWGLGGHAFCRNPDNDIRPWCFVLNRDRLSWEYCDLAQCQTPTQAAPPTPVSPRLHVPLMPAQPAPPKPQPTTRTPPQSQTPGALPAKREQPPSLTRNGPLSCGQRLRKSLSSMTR
# Assay: Factor XIIa (FXIIa) inhibitory activity, chromogenic substrate assay
# Format: biochemical
# Settings: Human FXIIa 12.5 nM, Pefachrome XIIa 400 μM, 10 min preincubation
# Protocol: Factor XIIa (FXIIa) Inhibitory Activity:
# In a 96-well clear bottom plate, 80 μl of assay buffer was added to each well. Assay buffer consists of 0.5× Hank's Balanced Salt Solution (Invitrogen), buffered with 25 mM HEPES pH 7.4 (Invitrogen) and 0.5× Tris-buffered saline with Tween-20 0.05% (Santa Cruz Biotechnology). Test compounds were first dissolved in DMSO (Sigma) and then 4 μl were added to test wells containing assay buffer. Serial dilutions using an automated multi-channel pipette were used to generate a concentration range of approximately 1-100 μM. […] 80 μl of this enzyme solution was added to the assay wells. The enzyme/compound mixtures were incubated for 10 minutes at room temperature. Chromogenic substrate (Pefachrome XIIa; Enzyme Research Labs) was added to assay wells at a final concentration of 400 μM. The assay plate was spun for 1 minute at 1500 g and then read at 37° C. in a SpectraMax M2 plate reader (λ=405 nm). Activity was quantified as the rate of change in absorbance, which corresponds to the rate of substrate cleavage.
row,IC50,Compound
1,3.3 µM,"CCc1cc2c([nH]1)CCCC2C(=O)n1nc2c(c1N)CCCC2 (single isomer, unassigned) [Example 84, (R*)-(3-amino-4,5,6,7-tetrahydroindazol-2-yl)(2-ethyl-4,5,6,7-tetrahydro-1H-indol-4-yl)methanone]"
2,> 50 µM,"Nc1nn(C(=O)C2CCNc3cc(Cl)ccc32)c2c1CCCC2 (stereo not drawn) [Example 104, (3-amino-4,5,6,7-tetrahydroindazol-1-yl)(7-chloro-1,2,3,4-tetrahydroquinolin-4-yl)methanone]"
3,0.03 µM,"Nc1c2c(nn1C(=O)c1cccc3[nH]ncc13)CCCC2 [Example 47, (3-amino-4,5,6,7-tetrahydroindazol-2-yl)(1H-indazol-4-yl)methanone]"
4,2.8 µM,"Nc1c2c(nn1C(=O)[C@@H]1CCNc3c(Cl)cccc31)C[C@@H](O)CC2 (single isomer, unassigned) [Example 206, ((6S*)-3-amino-6-hydroxy-4,5,6,7-tetrahydroindazol-2-yl)((4R*)-8-chloro-1,2,3,4-tetrahydroquinolin-4-yl)methanone]"
5,0.15 µM,Cc1cc2c(C(=O)n3cc4c(n3)CCCC4)cccc2[nH]1 [Example 159]
6,0.05 µM,"CCc1cc2c(C(=O)n3nc4c(c3N)CCCC4)ccnc2[nH]1 [Example 113, (3-amino-4,5,6,7-tetrahydro-2H-indazol-2-yl)(2-ethyl-1H-pyrrolo[2,3-b]pyridin-4-yl)methanone]"
7,> 100 µM,"Nc1nn(C(=O)[C@H]2CCNc3c(Cl)cccc32)c2c1CC[C@@H](O)C2 (single isomer, unassigned) [Example 211, ((6R*)-3-amino-6-hydroxy-4,5,6,7-tetrahydroindazol-1-yl)((4S*)-8-chloro-1,2,3,4-tetrahydroquinolin-4-yl)methanone]"
8,5 µM,"CN1CCC(C(=O)n2nc3c(c2N)CCCC3)c2cccnc21 (stereo not drawn) [Example 87, (3-amino-4,5,6,7-tetrahydroindazol-2-yl)(1-methyl-1,2,3,4-tetrahydro-1,8-naphthyridin-4-yl)methanone]"
9,0.02 µM,"CCc1cc2c([nH]1)CCCC2C(=O)n1nc2c(c1N)CCCC2 (single isomer, unassigned) [Example 83, (S*)-(3-amino-4,5,6,7-tetrahydroindazol-2-yl)(2-ethyl-4,5,6,7-tetrahydro-1H-indol-4-yl)methanone]"
10,> 100 µM,"Nc1nn(C(=O)C2CCNc3c(Cl)cccc32)c2c1CC(O)CC2 (single isomer, unassigned) [Example 205, ((5R*)-3-amino-5-hydroxy-4,5,6,7-tetrahydroindazol-1-yl)(8-chloro-1,2,3,4-tetrahydroquinolin-4-yl)methanone]"
11,> 80 µM,"Nc1nn(C(=O)[C@H]2CCNc3ccc(Cl)cc32)c2c1C[C@@H](O)CC2 (single isomer, unassigned) [Example 146, ((5S*)-3-amino-5-hydroxy-4,5,6,7-tetrahydroindazol-1-yl)((4S*)-6-chloro-1,2,3,4-tetrahydroquinolin-4-yl)methanone]"
12,> 100 µM,"Nc1nn(C(=O)C2CCCc3[nH]ccc32)c2c1CCCC2 (stereo not drawn) [Example 93, (3-amino-4,5,6,7-tetrahydroindazol-1-yl)(4,5,6,7-tetrahydro-1H-indol-4-yl)methanone]"
13,0.25 µM,"COc1ccc2c(c1)NCCC2C(=O)n1nc2c(c1N)CCCC2 (stereo not drawn) [Example 110, (3-amino-4,5,6,7-tetrahydroindazol-2-yl)(7-methoxy-1,2,3,4-tetrahydroquinolin-4-yl)methanone]"
14,3 µM,"Nc1c2c(nn1C(=O)[C@@H]1CCNc3c(Cl)cccc31)CC[C@H](N)C2 (relative stereo) [Example 216, ((4R*)-8-chloro-1,2,3,4-tetrahydroquinolin-4-yl)((5S*)-3,5-diamino-4,5,6,7-tetrahydroindazol-2-yl)methanone]"
15,1.8 µM,"Nc1c2c(nn1C(=O)C1CCNc3cc(C(F)(F)F)ccc31)CCCC2 (stereo not drawn) [Example 105, (3-amino-4,5,6,7-tetrahydro-2H-indazol-2-yl)(7-(trifluoromethyl)-1,2,3,4-tetrahydroquinolin-4-yl)methanone]"
16,> 80 µM,"Nc1nn(C(=O)[C@@H]2CCNc3ccc(Cl)cc32)c2c1C[C@@H](O)CC2 (single isomer, unassigned) [Example 145, ((5S*)-3-amino-5-hydroxy-4,5,6,7-tetrahydroindazol-1-yl)((4R*)-6-chloro-1,2,3,4-tetrahydroquinolin-4-yl)methanone]"
17,6 µM,Cc1cc2c(C(=O)n3ncc4c3CCCC4)cccc2[nH]1 [Example 160]
18,3.3 µM,"Cc1cccc2c1NCC[C@H]2C(=O)n1nc2c(c1N)CC[C@@H](O)C2 (single isomer, unassigned) [Example 200, ((6R*)-3-amino-6-hydroxy-4,5,6,7-tetrahydroindazol-2-yl)((4R*)-8-methyl-1,2,3,4-tetrahydroquinolin-4-yl)methanone]"
19,11 µM,"Cc1[nH]c2ccccc2c1C(=O)n1nc2c(c1N)CCCC2 [Example 44, (3-amino-4,5,6,7-tetrahydroindazol-2-yl)(2-methyl-1H-indol-3-yl)methanone]"
20,1.5 µM,Cc1ccc2c(c1)N(C)CCC2C(=O)n1nc2c(c1N)CCCC2 (stereo not drawn) [Example 163]
21,45 µM,"Nc1c2c(nn1C(=O)[C@@H]1CCNc3ccc(F)cc31)CC[C@@H](O)C2 (single isomer, unassigned) [Example 130, ((5R*)-3-amino-5-hydroxy-4,5,6,7-tetrahydro-2H-indazol-2-yl)(4(R*)-6-fluoro-1,2,3,4-tetrahydroquinolin-4-yl)methanone]"
22,0.03 µM,"Cc1cc2c(C(=O)n3nc4c(c3N)CC(OCc3ccccc3)CC4)cccc2[nH]1 (stereo not drawn) [Example 117, (3-amino-5-(benzyloxy)-4,5,6,7-tetrahydroindazol-2-yl)(2-methyl-1H-indol-4-yl)methanone]"
23,0.15 µM,"CN1CCC(C(=O)n2nc3c(c2N)CCCC3)c2ccccc21 (single isomer, unassigned) [Example 72, (S*)-(3-amino-4,5,6,7-tetrahydroindazol-2-yl)(1-methyl-1,2,3,4-tetrahydroquinolin-4-yl)methanone]"
24,28 µM,"CO[C@@H]1CCc2nn(C(=O)[C@H]3CCNc4ccc(F)cc43)c(N)c2C1 (single isomer, unassigned) [Example 179, ((5R*)-3-amino-5-methoxy-4,5,6,7-tetrahydroindazol-2-yl)((4S*)-6-fluoro-1,2,3,4-tetrahydroquinolin-4-yl)methanone]"
25,> 55 µM,"Nc1nn(C(=O)C2CCNc3ccc(F)cc32)c2c1CC(NC(=O)OCc1ccccc1)CC2 (single isomer, unassigned) [Example 191, benzyl N-[(5S*)-3-amino-1-[(6-fluoro-1,2,3,4-tetrahydroquinolin-4-yl)carbonyl]-4,5,6,7-tetrahydro-1H-indazol-5-yl]carbamate]"
26,8 µM,"Nc1c2c(nn1C(=O)C1CCCc3[nH]c(Cl)cc31)CCCC2 (single isomer, unassigned) [Example 107, (R*)-(3-amino-4,5,6,7-tetrahydro-2H-indazol-2-yl)(2-chloro-4,5,6,7-tetrahydro-1H-indol-4-yl)methanone]"
27,7 µM,"Cc1cccc2c1NCCC2C(=O)n1nc2c(c1N)C=CCC2 (single isomer, unassigned) [Example 194, (R*)-(3-amino-6,7-dihydroindazol-2-yl)(8-methyl-1,2,3,4-tetrahydroquinolin-4-yl)methanone]"
